Experimental findings from patent US9102752B2, “Peptide vaccine for prevention and immunotherapy of dementia of the Alzheimer's type” (United Biomedical, Inc., priority 2013, dated 2015) are described below.

The test system of assay [1] is anti-Aβ antibodies in sera of vaccinated patients. The experiment in a line: Epitope mapping, competitive binding inhibition EIA with patient sera (10-mer peptides, IC50). On the set-up: species or system human; Epitope mapping, fine specificity analysis, serum of subject P210: unit not given here. Conditions: for Epitope mapping, fine specificity analysis, serum of subject P101: serum 16 wpi of vaccinated patient P101; for Epitope mapping, fine specificity analysis, serum of subject P102: serum 16 wpi of vaccinated patient P102; for Epitope mapping, fine specificity analysis, serum of subject P103: serum 16 wpi of vaccinated patient P103; for Epitope mapping, fine specificity analysis, serum of subject P104: serum 16 wpi of vaccinated patient P104; for Epitope mapping, fine specificity analysis, serum of subject P105: serum 16 wpi of vaccinated patient P105; for Epitope mapping, fine specificity analysis, serum of subject P106: serum 16 wpi of vaccinated patient P106; for Epitope mapping, fine specificity analysis, serum of subject P107: serum 16 wpi of vaccinated patient P107; for Epitope mapping, fine specificity analysis, serum of subject P108: serum 16 wpi of vaccinated patient P108; for Epitope mapping, fine specificity analysis, serum of subject P109: serum 16 wpi of vaccinated patient P109; for Epitope mapping, fine specificity analysis, serum of subject P201: serum 16 wpi of vaccinated patient P201; for Epitope mapping, fine specificity analysis, serum of subject P202: serum 16 wpi of vaccinated patient P202; for Epitope mapping, fine specificity analysis, serum of subject P203: serum 16 wpi of vaccinated patient P203; for Epitope mapping, fine specificity analysis, serum of subject P204: serum 16 wpi of vaccinated patient P204; for Epitope mapping, fine specificity analysis, serum of subject P205: serum 16 wpi of vaccinated patient P205; for Epitope mapping, fine specificity analysis, serum of subject P206: serum 16 wpi of vaccinated patient P206; for Epitope mapping, fine specificity analysis, serum of subject P207: serum 16 wpi of vaccinated patient P207; for Epitope mapping, fine specificity analysis, serum of subject P208: serum 16 wpi of vaccinated patient P208; for Epitope mapping, fine specificity analysis, serum of subject P209: serum 16 wpi of vaccinated patient P209; for Epitope mapping, fine specificity analysis, serum of subject P210: serum 16 wpi of vaccinated patient P210.

For assay [2], the system named is anti-Aβ antibodies in macaque antisera. In words: Specificity analysis (10-mer peptide ELISA) of antisera from Cynomolgus macaques. It counts as binding.
The mark [3] stands for this setting: antisera of macaques given UBI AD Vaccine 150 μg/dose, 9 WPI.
The mark [4] stands for this setting: antisera of macaques given UBI AD Vaccine 150 μg/dose, 15 WPI.
Setting [5] is: antisera of macaques given UBI AD Vaccine 750 μg/dose, 9 WPI.
[6] abbreviates: antisera of macaques given UBI AD Vaccine 750 μg/dose, 15 WPI.

“18 (EFRHDSGYEV; PEPTIDE (1)..(10) Abeta 3-12 or APP 770(E674-V683); listed as Homo sapiens) [compound 18]”: in assay [1], the “Epitope mapping, fine specificity analysis, serum of subject P101” value (shortened to “Epitope mapping … of subject P101”) came out at 0; the “Epitope mapping, fine specificity analysis, serum of subject P102” value (“Epitope mapping … of subject P102” for short) is reported as 0; the “Epitope mapping, fine specificity analysis, serum of subject P103” value (“Epitope mapping … of subject P103” below) amounted to 0; the “Epitope mapping, fine specificity analysis, serum of subject P104” value (shortened to “Epitope mapping … of subject P104”) is recorded as 0. Moreover, in assay [1], the “Epitope mapping, fine specificity analysis, serum of subject P105” value (“Epitope mapping … of subject P105” for short) stood at 0; the “Epitope mapping, fine specificity analysis, serum of subject P106” value (“Epitope mapping … of subject P106” below) worked out at 0; the “Epitope mapping, fine specificity analysis, serum of subject P107” value (shortened to “Epitope mapping … of subject P107”) is recorded as 0; the “Epitope mapping, fine specificity analysis, serum of subject P108” value (“Epitope mapping … of subject P108” for short) is listed as 0. Besides, in assay [1], the “Epitope mapping, fine specificity analysis, serum of subject P109” value (“Epitope mapping … of subject P109” below) came to 0; the “Epitope mapping, fine specificity analysis, serum of subject P201” value (shortened to “Epitope mapping … of subject P201”) amounted to 0; the “Epitope mapping, fine specificity analysis, serum of subject P202” value (“Epitope mapping … of subject P202” for short) is listed as 0; the “Epitope mapping, fine specificity analysis, serum of subject P203” value (“Epitope mapping … of subject P203” below) is given as 0. In assay [1], the “Epitope mapping, fine specificity analysis, serum of subject P204” value (shortened to “Epitope mapping … of subject P204”) came out at 0; the “Epitope mapping, fine specificity analysis, serum of subject P205” value (“Epitope mapping … of subject P205” for short) amounted to 0; the “Epitope mapping, fine specificity analysis, serum of subject P206” value (“Epitope mapping … of subject P206” below) worked out at 0; the “Epitope mapping, fine specificity analysis, serum of subject P207” value (shortened to “Epitope mapping … of subject P207”) is recorded as 0. In assay [1], the “Epitope mapping, fine specificity analysis, serum of subject P208” value (“Epitope mapping … of subject P208” for short) was determined as 0; the “Epitope mapping, fine specificity analysis, serum of subject P209” value (“Epitope mapping … of subject P209” below) is recorded as 0; the “Epitope mapping, fine specificity analysis, serum of subject P210” value (shortened to “Epitope mapping … of subject P210”) amounted to 0. For the same substance, the “Reactivity of antisera with peptide (specificity analysis ELISA)” value (“Reactivity of antisera with peptide” for short) in assay [2] (setting [3]) is listed as 0.047. Also, the “Reactivity of antisera with peptide” value in assay [2] (setting [4]) is listed as 0.060. Also, the “Reactivity of antisera with peptide” value in assay [2] (setting [5]) is recorded as 0.042. In addition, the “Reactivity of antisera with peptide” value in assay [2] (setting [6]) turned out to be 0.052.
As for “13 (EVKMDAEFRH; PROPEP (1)..(10) Abeta -4-6 or APP 770(E668-H677); listed as Homo sapiens) [compound 13]”, in assay [1], the “Epitope mapping … of subject P101” value is recorded as 1; the “Epitope mapping … of subject P102” value was 0; the “Epitope mapping … of subject P103” value amounted to 0; the “Epitope mapping … of subject P104” value is 0. Further, in assay [1], the “Epitope mapping … of subject P105” value is 0; the “Epitope mapping … of subject P106” value was 0; the “Epitope mapping … of subject P107” value was 0; the “Epitope mapping … of subject P108” value amounted to 0. In assay [1], the “Epitope mapping … of subject P109” value is 0; the “Epitope mapping … of subject P201” value came out at 58; the “Epitope mapping … of subject P202” value is 0; the “Epitope mapping … of subject P203” value turned out to be 0. In assay [1], the “Epitope mapping … of subject P204” value worked out at 0; the “Epitope mapping … of subject P205” value is given as 0; the “Epitope mapping … of subject P206” value turned out to be 0; the “Epitope mapping … of subject P207” value is listed as 1. Moreover, in assay [1], the “Epitope mapping … of subject P208” value is given as 0; the “Epitope mapping … of subject P209” value was found to be 0; the “Epitope mapping … of subject P210” value came to 0. In addition, the “Reactivity of antisera with peptide” value in assay [2] (setting [3]) was found to be 0.046. In assay [2] (setting [4]), the “Reactivity of antisera with peptide” value turned out to be 0.047. In assay [2] (setting [5]), the “Reactivity of antisera with peptide” value was 0.054. Moreover, the “Reactivity of antisera with peptide” value in assay [2] (setting [6]) was determined as 0.047.
As for “14 (VKMDAEFRHD; PEPTIDE (1)..(10) Abeta -3-7 or APP 770(V669-D678); listed as Homo sapiens) [compound 14]”, in assay [1], the “Epitope mapping … of subject P101” value is given as 31; the “Epitope mapping … of subject P102” value is reported as 0; the “Epitope mapping … of subject P103” value was determined as 0; the “Epitope mapping … of subject P104” value came to 0. Moreover, in assay [1], the “Epitope mapping … of subject P105” value was found to be 0; the “Epitope mapping … of subject P106” value is reported as 0; the “Epitope mapping … of subject P107” value amounted to 0; the “Epitope mapping … of subject P108” value was 0. Moreover, in assay [1], the “Epitope mapping … of subject P109” value is 0; the “Epitope mapping … of subject P201” value came out at 0; the “Epitope mapping … of subject P202” value is on record as 0; the “Epitope mapping … of subject P203” value turned out to be 0. Also, in assay [1], the “Epitope mapping … of subject P204” value is recorded as 1; the “Epitope mapping … of subject P205” value was determined as 0; the “Epitope mapping … of subject P206” value was 0; the “Epitope mapping … of subject P207” value is 0. Besides, in assay [1], the “Epitope mapping … of subject P208” value worked out at 0; the “Epitope mapping … of subject P209” value amounted to 0; the “Epitope mapping … of subject P210” value worked out at 13. In assay [2] (setting [3]), the “Reactivity of antisera with peptide” value is 0.068. The “Reactivity of antisera with peptide” value in assay [2] (setting [4]) came out at 0.053. Besides, the “Reactivity of antisera with peptide” value in assay [2] (setting [5]) worked out at 0.061. The “Reactivity of antisera with peptide” value in assay [2] (setting [6]) amounted to 0.054.
As to “10 (EISEVKMDAE; PEPTIDE (1)..(10) Abeta -7-3 or APP 770(E665-E674); listed as Homo sapiens) [compound 10]”, in assay [1], the “Epitope mapping … of subject P101” value came out at 0; the “Epitope mapping … of subject P102” value turned out to be 0; the “Epitope mapping … of subject P103” value is on record as 0; the “Epitope mapping … of subject P104” value came to 0. In addition, in assay [1], the “Epitope mapping … of subject P105” value is 0; the “Epitope mapping … of subject P106” value came out at 0; the “Epitope mapping … of subject P107” value is 0; the “Epitope mapping … of subject P108” value came to 0. Further, in assay [1], the “Epitope mapping … of subject P109” value came to 0; the “Epitope mapping … of subject P201” value is 0; the “Epitope mapping … of subject P202” value stood at 0; the “Epitope mapping … of subject P203” value worked out at 0. In assay [1], the “Epitope mapping … of subject P204” value stood at 0; the “Epitope mapping … of subject P205” value was determined as 0; the “Epitope mapping … of subject P206” value was 0; the “Epitope mapping … of subject P207” value is 0. In addition, in assay [1], the “Epitope mapping … of subject P208” value is given as 0; the “Epitope mapping … of subject P209” value is listed as 0; the “Epitope mapping … of subject P210” value is 0. In addition, the “Reactivity of antisera with peptide” value in assay [2] (setting [3]) is on record as 0.060. For the same substance, in assay [2] (setting [4]), the “Reactivity of antisera with peptide” value is 0.056. Also, the “Reactivity of antisera with peptide” value in assay [2] (setting [5]) is 0.064. Further, in assay [2] (setting [6]), the “Reactivity of antisera with peptide” value stood at 0.053.
Regarding “11 (ISEVKMDAEF; PEPTIDE (1)..(10) Abeta -6-4 or APP 770(I666-F675); listed as Homo sapiens) [compound 11]”, in assay [1], the “Epitope mapping … of subject P101” value worked out at 0; the “Epitope mapping … of subject P102” value is 0; the “Epitope mapping … of subject P103” value is 0; the “Epitope mapping … of subject P104” value turned out to be 0. Also, in assay [1], the “Epitope mapping … of subject P105” value is on record as 0; the “Epitope mapping … of subject P106” value came out at 0; the “Epitope mapping … of subject P107” value was found to be 0; the “Epitope mapping … of subject P108” value is 0. In assay [1], the “Epitope mapping … of subject P109” value worked out at 0; the “Epitope mapping … of subject P201” value is 0; the “Epitope mapping … of subject P202” value was determined as 0; the “Epitope mapping … of subject P203” value stood at 0. For the same substance, in assay [1], the “Epitope mapping … of subject P204” value is on record as 0; the “Epitope mapping … of subject P205” value was found to be 0; the “Epitope mapping … of subject P206” value is recorded as 0; the “Epitope mapping … of subject P207” value amounted to 0. Further, in assay [1], the “Epitope mapping … of subject P208” value is recorded as 0; the “Epitope mapping … of subject P209” value was 0; the “Epitope mapping … of subject P210” value is 0. In addition, in assay [2] (setting [3]), the “Reactivity of antisera with peptide” value was found to be 0.055. Further, the “Reactivity of antisera with peptide” value in assay [2] (setting [4]) is given as 0.058. For the same substance, in assay [2] (setting [5]), the “Reactivity of antisera with peptide” value is reported as 0.063. The “Reactivity of antisera with peptide” value in assay [2] (setting [6]) was 0.062.
